Measurements as given in patent US20210363254A1, “PHARMACEUTICAL COMBINATIONS” (Novartis AG, priority 2018, published 2021).
Read-outs that look alike come from different tables or passages of the source.

COc1ncc(-c2nc3c(n2C(C)C)[C@H](c2ccc(Cl)cc2)N(c2cc(Cl)cn(C)c2=O)C3=O)c(OC)n1 [HDM201, (S)-5-(5-Chloro-1-methyl-2-oxo-1,2-dihydro-pyridin-3-yl)-6-(4-chloro-phenyl)-2-(2,4-dimethoxy-pyrimidin-5-yl)-1-isopropyl-5,6-dihydro-1H-pyrrolo[3,4-d]imidazol-4-one]
2 (25.0) n (%): Abdominal Pain, All Grades (1B 150 mg, N=8) | Anaemia, All Grades (1B 150 mg, N=8) | Diarrhoea, All Grades (1B 150 mg, N=8) | Fatigue, All Grades (1B 150 mg, N=8) | Lipase Increased, All Grades (1B 150 mg, N=8) | Lipase Increased, Grade 3/4 (1B 150 mg, N=8) | Lymphopenia, All Grades (1B 150 mg, N=8) | Neutrophil Count Decreased, Grade 3/4 (1B 150 mg, N=8) | Thrombocytopenia, Grade 3/4 (1B 150 mg, N=8) | Vomiting, All Grades (1B 150 mg, N=8)
7 (77.8) n (%): Nausea, All Grades (1B 120 mg, N=9)
3 (33.3) n (%): Diarrhoea, All Grades (1B 120 mg, N=9) | Platelet Count Decreased, All Grades (1B 120 mg, N=9) | Vomiting, All Grades (1B 120 mg, N=9)
2 (22.2) n (%): Anaemia, All Grades (1B 120 mg, N=9) | Blood Creatine Phosphokinase Increased, All Grades (1B 120 mg, N=9) | Neutropenia, All Grades (1B 120 mg, N=9) | Neutropenia, Grade 3/4 (1B 120 mg, N=9) | White Blood Cell Count Decreased, All Grades (1B 120 mg, N=9)
0 n (%): Abdominal Pain, Grade 3/4 (1B 120 mg, N=9) | Alanine Aminotransferase Increased, All Grades (1B 120 mg, N=9) | Alanine Aminotransferase Increased, Grade 3/4 (1B 120 mg, N=9) | Alopecia, Grade 3/4 (1B 120 mg, N=9) | Amylase Increased, All Grades (1B 120 mg, N=9) | Amylase Increased, Grade 3/4 (1B 120 mg, N=9) | Anaemia, Grade 3/4 (1B 120 mg, N=9) | Asthenia, Grade 3/4 (1B 120 mg, N=9) | Blood Bilirubin Increased, All Grades (1B 120 mg, N=9) | Blood Bilirubin Increased, Grade 3/4 (1B 120 mg, N=9) | Blood Creatinine Increased, Grade 3/4 (1B 120 mg, N=9) | Decreased Appetite, Grade 3/4 (1B 120 mg, N=9) | Dehydration, Grade 3/4 (1B 120 mg, N=9) | Diarrhoea, Grade 3/4 (1B 120 mg, N=9) | Dry Skin, Grade 3/4 (1B 120 mg, N=9) | Dysgeusia, Grade 3/4 (1B 120 mg, N=9) | Eye Pain, All Grades (1B 120 mg, N=9) | Eye Pain, Grade 3/4 (1B 120 mg, N=9) | Fatigue, Grade 3/4 (1B 120 mg, N=9) | Folliculitis, All Grades (1B 120 mg, N=9) | Folliculitis, Grade 3/4 (1B 120 mg, N=9) | Gamma-Glutamyltransferase Increased, All Grades (1B 120 mg, N=9) | Gamma-Glutamyltransferase Increased, Grade 3/4 (1B 120 mg, N=9) | Headache, All Grades (1B 120 mg, N=9) | Headache, Grade 3/4 (1B 120 mg, N=9) | Hyperkalaemia, Grade 3/4 (1B 120 mg, N=9) | Hypocalcaemia, Grade 3/4 (1B 120 mg, N=9) | Influenza Like Illness, All Grades (1B 120 mg, N=9) | Influenza Like Illness, Grade 3/4 (1B 120 mg, N=9) | Lethargy, All Grades (1B 120 mg, N=9) | Lethargy, Grade 3/4 (1B 120 mg, N=9) | Leukopenia, Grade 3/4 (1B 120 mg, N=9) | Lipase Increased, Grade 3/4 (1B 120 mg, N=9) | Lymphopenia, All Grades (1B 120 mg, N=9) | Lymphopenia, Grade 3/4 (1B 120 mg, N=9) | Monocytosis, Grade 3/4 (1B 120 mg, N=9) | Musculoskeletal Pain, Grade 3/4 (1B 120 mg, N=9) | Myalgia, Grade 3/4 (1B 120 mg, N=9) | Neuralgia, All Grades (1B 120 mg, N=9) | Neuralgia, Grade 3/4 (1B 120 mg, N=9) | Neutrophil Count Decreased, All Grades (1B 120 mg, N=9) | Neutrophil Count Decreased, Grade 3/4 (1B 120 mg, N=9) | Oedema, All Grades (1B 120 mg, N=9) | Oedema, Grade 3/4 (1B 120 mg, N=9) | Oral Candidiasis, All Grades (1B 120 mg, N=9) | Oral Candidiasis, Grade 3/4 (1B 120 mg, N=9) | Platelet Count Decreased, Grade 3/4 (1B 120 mg, N=9) | Pruritus, All Grades (1B 120 mg, N=9) | Pruritus, Grade 3/4 (1B 120 mg, N=9) | Thrombocytopenia, Grade 3/4 (1B 120 mg, N=9) | Vomiting, Grade 3/4 (1B 120 mg, N=9) | Weight Decreased, Grade 3/4 (1B 120 mg, N=9) | White Blood Cell Count Decreased, Grade 3/4 (1B 120 mg, N=9) | Abdominal Pain, Grade 3/4 (1B 150 mg, N=8) | Alanine Aminotransferase Increased, Grade 3/4 (1B 150 mg, N=8) | Alopecia, All Grades (1B 150 mg, N=8) | Alopecia, Grade 3/4 (1B 150 mg, N=8) | Amylase Increased, All Grades (1B 150 mg, N=8) | Amylase Increased, Grade 3/4 (1B 150 mg, N=8) | Anaemia, Grade 3/4 (1B 150 mg, N=8) | Asthenia, Grade 3/4 (1B 150 mg, N=8) | Blood Bilirubin Increased, Grade 3/4 (1B 150 mg, N=8) | Blood Creatine Phosphokinase Increased, All Grades (1B 150 mg, N=8) | Blood Creatine Phosphokinase Increased, Grade 3/4 (1B 150 mg, N=8) | Blood Creatinine Increased, Grade 3/4 (1B 150 mg, N=8) | Decreased Appetite, Grade 3/4 (1B 150 mg, N=8) | Dehydration, All Grades (1B 150 mg, N=8) | Dehydration, Grade 3/4 (1B 150 mg, N=8) | Diarrhoea, Grade 3/4 (1B 150 mg, N=8) | Dry Skin, All Grades (1B 150 mg, N=8) | Dry Skin, Grade 3/4 (1B 150 mg, N=8) | Dysgeusia, All Grades (1B 150 mg, N=8) | Dysgeusia, Grade 3/4 (1B 150 mg, N=8) | Eye Pain, Grade 3/4 (1B 150 mg, N=8) | Folliculitis, Grade 3/4 (1B 150 mg, N=8) | Gamma-Glutamyltransferase Increased, Grade 3/4 (1B 150 mg, N=8) | Headache, Grade 3/4 (1B 150 mg, N=8) | Hyperkalaemia, All Grades (1B 150 mg, N=8) | Hyperkalaemia, Grade 3/4 (1B 150 mg, N=8) | Hypocalcaemia, All Grades (1B 150 mg, N=8) | Hypocalcaemia, Grade 3/4 (1B 150 mg, N=8) | Influenza Like Illness, Grade 3/4 (1B 150 mg, N=8) | Lethargy, Grade 3/4 (1B 150 mg, N=8) | Monocytosis, All Grades (1B 150 mg, N=8) | Monocytosis, Grade 3/4 (1B 150 mg, N=8) | Musculoskeletal Pain, All Grades (1B 150 mg, N=8) | Musculoskeletal Pain, Grade 3/4 (1B 150 mg, N=8) | Myalgia, All Grades (1B 150 mg, N=8) | Myalgia, Grade 3/4 (1B 150 mg, N=8) | Nausea, Grade 3/4 (1B 150 mg, N=8) | Neuralgia, Grade 3/4 (1B 150 mg, N=8) | Oedema, All Grades (1B 150 mg, N=8) | Oedema, Grade 3/4 (1B 150 mg, N=8) | Oral Candidiasis, Grade 3/4 (1B 150 mg, N=8) | Platelet Count Decreased, Grade 3/4 (1B 150 mg, N=8) | Pruritus, Grade 3/4 (1B 150 mg, N=8) | Vomiting, Grade 3/4 (1B 150 mg, N=8) | Weight Decreased, All Grades (1B 150 mg, N=8) | Weight Decreased, Grade 3/4 (1B 150 mg, N=8) | White Blood Cell Count Decreased, Grade 3/4 (1B 150 mg, N=8) | Abdominal Pain, All Grades (1B 200 mg, N=3) | Abdominal Pain, Grade 3/4 (1B 200 mg, N=3) | Alanine Aminotransferase Increased, All Grades (1B 200 mg, N=3) | Alanine Aminotransferase Increased, Grade 3/4 (1B 200 mg, N=3) | Alopecia, All Grades (1B 200 mg, N=3) | Alopecia, Grade 3/4 (1B 200 mg, N=3) | Amylase Increased, Grade 3/4 (1B 200 mg, N=3) | Anaemia, Grade 3/4 (1B 200 mg, N=3) | Asthenia, All Grades (1B 200 mg, N=3) | Asthenia, Grade 3/4 (1B 200 mg, N=3) | Blood Bilirubin Increased, All Grades (1B 200 mg, N=3) | Blood Bilirubin Increased, Grade 3/4 (1B 200 mg, N=3) | Blood Creatine Phosphokinase Increased, All Grades (1B 200 mg, N=3) | Blood Creatine Phosphokinase Increased, Grade 3/4 (1B 200 mg, N=3) | Blood Creatinine Increased, All Grades (1B 200 mg, N=3) | Blood Creatinine Increased, Grade 3/4 (1B 200 mg, N=3) | Decreased Appetite, All Grades (1B 200 mg, N=3) | Decreased Appetite, Grade 3/4 (1B 200 mg, N=3) | Dehydration, All Grades (1B 200 mg, N=3) | Dehydration, Grade 3/4 (1B 200 mg, N=3) | Diarrhoea, All Grades (1B 200 mg, N=3) | Diarrhoea, Grade 3/4 (1B 200 mg, N=3) | Dry Skin, All Grades (1B 200 mg, N=3) | Dry Skin, Grade 3/4 (1B 200 mg, N=3) | Dysgeusia, All Grades (1B 200 mg, N=3) | Dysgeusia, Grade 3/4 (1B 200 mg, N=3) | Eye Pain, All Grades (1B 200 mg, N=3) | Eye Pain, Grade 3/4 (1B 200 mg, N=3) | Fatigue, Grade 3/4 (1B 200 mg, N=3) | Folliculitis, All Grades (1B 200 mg, N=3) | Folliculitis, Grade 3/4 (1B 200 mg, N=3) | Gamma-Glutamyltransferase Increased, All Grades (1B 200 mg, N=3) | Gamma-Glutamyltransferase Increased, Grade 3/4 (1B 200 mg, N=3) | Headache, All Grades (1B 200 mg, N=3) | Headache, Grade 3/4 (1B 200 mg, N=3) | Hyperkalaemia, All Grades (1B 200 mg, N=3)
1 (11.1) n (%): Abdominal Pain, All Grades (1B 120 mg, N=9) | Alopecia, All Grades (1B 120 mg, N=9) | Asthenia, All Grades (1B 120 mg, N=9) | Blood Creatine Phosphokinase Increased, Grade 3/4 (1B 120 mg, N=9) | Blood Creatinine Increased, All Grades (1B 120 mg, N=9) | Decreased Appetite, All Grades (1B 120 mg, N=9) | Dehydration, All Grades (1B 120 mg, N=9) | Dry Skin, All Grades (1B 120 mg, N=9) | Dysgeusia, All Grades (1B 120 mg, N=9) | Fatigue, All Grades (1B 120 mg, N=9) | Hyperkalaemia, All Grades (1B 120 mg, N=9) | Hypocalcaemia, All Grades (1B 120 mg, N=9) | Leukopenia, All Grades (1B 120 mg, N=9) | Lipase Increased, All Grades (1B 120 mg, N=9) | Monocytosis, All Grades (1B 120 mg, N=9) | Musculoskeletal Pain, All Grades (1B 120 mg, N=9) | Myalgia, All Grades (1B 120 mg, N=9) | Nausea, Grade 3/4 (1B 120 mg, N=9) | Thrombocytopenia, All Grades (1B 120 mg, N=9) | Weight Decreased, All Grades (1B 120 mg, N=9)
4 (50.0) n (%): Nausea, All Grades (1B 150 mg, N=8) | Neutropenia, All Grades (1B 150 mg, N=8) | Thrombocytopenia, All Grades (1B 150 mg, N=8) | Total, Grade 3/4 (1B 150 mg, N=8)
9 (100) n (%): Total, All Grades (1B 120 mg, N=9)
3 (37.5) n (%): Decreased Appetite, All Grades (1B 150 mg, N=8) | Neutropenia, Grade 3/4 (1B 150 mg, N=8) | Neutrophil Count Decreased, All Grades (1B 150 mg, N=8)
7 (87.5) n (%): Total, All Grades (1B 150 mg, N=8)
4 (44.4) n (%): Total, Grade 3/4 (1B 120 mg, N=9)
1 (12.5) n (%): Alanine Aminotransferase Increased, All Grades (1B 150 mg, N=8) | Asthenia, All Grades (1B 150 mg, N=8) | Blood Bilirubin Increased, All Grades (1B 150 mg, N=8) | Blood Creatinine Increased, All Grades (1B 150 mg, N=8) | Eye Pain, All Grades (1B 150 mg, N=8) | Fatigue, Grade 3/4 (1B 150 mg, N=8) | Folliculitis, All Grades (1B 150 mg, N=8) | Gamma-Glutamyltransferase Increased, All Grades (1B 150 mg, N=8) | Headache, All Grades (1B 150 mg, N=8) | Influenza Like Illness, All Grades (1B 150 mg, N=8) | Lethargy, All Grades (1B 150 mg, N=8) | Leukopenia, All Grades (1B 150 mg, N=8) | Leukopenia, Grade 3/4 (1B 150 mg, N=8) | Lymphopenia, Grade 3/4 (1B 150 mg, N=8) | Neuralgia, All Grades (1B 150 mg, N=8) | Oral Candidiasis, All Grades (1B 150 mg, N=8) | Platelet Count Decreased, All Grades (1B 150 mg, N=8) | Pruritus, All Grades (1B 150 mg, N=8) | White Blood Cell Count Decreased, All Grades (1B 150 mg, N=8)
1 (33.3) n (%): Amylase Increased, All Grades (1B 200 mg, N=3) | Anaemia, All Grades (1B 200 mg, N=3) | Fatigue, All Grades (1B 200 mg, N=3)
